Counter-ions that a name gives are not always drawn.
What follows are compounds tested against Sphingosine 1-phosphate receptor 1 (Homo sapiens, UniProt P21453) (assay: S1P1 receptor agonists, dose response, cell-based, agonist mode, 60K MLSMR set (AID 468)). Conditions: not given.
Chain of Sphingosine 1-phosphate receptor 1 (P21453 whole entry): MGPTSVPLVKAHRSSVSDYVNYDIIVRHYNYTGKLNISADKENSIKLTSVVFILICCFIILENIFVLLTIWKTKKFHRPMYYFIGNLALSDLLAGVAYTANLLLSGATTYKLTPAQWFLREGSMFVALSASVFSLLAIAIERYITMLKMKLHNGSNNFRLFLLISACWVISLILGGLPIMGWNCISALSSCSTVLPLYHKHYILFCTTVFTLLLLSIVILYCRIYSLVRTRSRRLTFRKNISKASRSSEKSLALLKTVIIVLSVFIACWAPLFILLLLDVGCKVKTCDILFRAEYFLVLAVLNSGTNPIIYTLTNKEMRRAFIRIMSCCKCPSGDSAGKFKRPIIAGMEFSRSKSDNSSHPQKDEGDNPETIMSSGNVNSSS

Row | EC50 [µM] | SMILES
1 | 5.08 | Cc1nnc2ccc(Oc3ccc(-c4ccccc4)cc3)nn12 [3-methyl-6-(4-phenylphenoxy)-[1,2,4]triazolo[4,3-b]pyridazine]
2 | 9.63 | Cn1c(=O)oc2cc(S(=O)(=O)N3CCCC(C(=O)N4CC=C(c5ccccc5)CC4)C3)ccc21 (stereo not given) [3-methyl-6-[3-(4-phenyl-3,6-dihydro-2H-pyridine-1-carbonyl)piperidin-1-yl]sulfonyl-1,3-benzoxazol-2-one]
3 | > 10 | Oc1ccc(-c2nnc(-c3ccc(O)cc3)nn2)cc1 [4,4'-(1,2,4,5-tetrazine-3,6-diyl)diphenol]
4 | > 10 | Nc1ccc(N2CCCCCC2)cc1 [4-(1-azepanyl)aniline;hydrochloride]
5 | 7.15 | O=C(NCc1ccccc1)N1CCN(c2ccc(Cl)c(Cl)c2)CC1 [4-(3,4-dichlorophenyl)-N-(phenylmethyl)-1-piperazinecarboxamide]
6 | 9.76 | CC(=O)c1ccc(NC(=O)N2CCN(c3cccc(Cl)c3)CC2)cc1 [4-(3-chlorophenyl)-N-(4-ethanoylphenyl)piperazine-1-carboxamide]
7 | > 95 | c1ccc(N2CCN(c3ncnc4c3oc3ccccc34)CC2)cc1 [4-(4-phenyl-1-piperazinyl)benzofuro[3,2-d]pyrimidine]
8 | 0.552 | Oc1ccc(-c2nnc(SCC3CCCCC3)o2)cc1 [4-(5-Cyclohexylmethylsulfanyl-[1,3,4]oxadiazol-2-yl)-phenol]
9 | 2.64 | CC(C)c1ccc2oc(-c3ccc(N)cc3)nc2c1 [4-(5-propan-2-yl-1,3-benzoxazol-2-yl)aniline]
10 | 2.77 | Cc1nc2sccn2c1-c1csc(NCc2ccccc2)n1 [4-(6-methyl-5-imidazo[2,1-b]thiazolyl)-N-(phenylmethyl)-2-thiazolamine]
11 | 8.02 | O=C(Nc1nccs1)c1ccc(S(=O)(=O)NCC2CCCCC2)cc1 [4-(Cyclohexylmethyl-sulfamoyl)-N-thiazol-2-yl-benzamide]
12 | 4.15 | Cc1ccc2[nH]c3c(N4CCCCCC4)ncnc3c2c1 [4-(azepan-1-yl)-8-methyl-5H-pyrimido[5,4-b]indole]
13 | 6.37 | CCOC(=O)c1cnc(-n2nc(C)cc2C)nc1NC1CCCCC1 [4-(cyclohexylamino)-2-(3,5-dimethyl-1-pyrazolyl)-5-pyrimidinecarboxylic acid ethyl ester]
14 | > 10 | CN(C)S(=O)(=O)c1ccc(C(=O)Nc2nc(-c3cccs3)cs2)cc1 [4-(dimethylsulfamoyl)-N-(4-thiophen-2-yl-1,3-thiazol-2-yl)benzamide]
15 | 5.55 | CCN(C1CCCCC1)S(=O)(=O)c1ccc(S(=O)(=O)NCc2ccncc2)cc1 [4-N-cyclohexyl-4-N-ethyl-1-N-(pyridin-4-ylmethyl)benzene-1,4-disulfonamide]
16 | 5.92 | CCOC(=O)N1CCN(C(=O)C2CCN(c3ncnc4c3sc3cccc(F)c34)CC2)CC1 [4-[1-(9-fluorobenzothiopheno[3,2-d]pyrimidin-4-yl)isonipecotoyl]piperazine-1-carboxylic acid ethyl ester]
17 | 8.15 | CCCOC(=O)c1ccc(OCC(O)Cn2c(C)nc3ccccc32)cc1 (stereo not given) [4-[2-hydroxy-3-(2-methyl-1-benzimidazolyl)propoxy]benzoic acid propyl ester]
18 | > 95 | COC(=O)c1ccc(OCC(O)Cn2nnc3ccccc32)cc1 (stereo not given) [4-[3-(1-benzotriazolyl)-2-hydroxypropoxy]benzoic acid methyl ester]

Row | EC50 [µM] | SMILES
19 | 8.46 | Cc1ccccc1-c1noc(-c2ccc(O)cc2)n1 [4-[3-(2-methylphenyl)-2H-1,2,4-oxadiazol-5-ylidene]-1-cyclohexa-2,5-dienone]
20 | 5.24 | O=C(c1cc(-c2ccc(O)cc2)on1)N1CCc2ccccc2C1 [4-[3-(3,4-dihydro-1H-isoquinolin-2-ylcarbonyl)-2H-1,2-oxazol-5-ylidene]cyclohexa-2,5-dien-1-one]
21 | 7.37 | O=C(Nc1cccc(C(F)(F)F)c1)N1CCC(c2nc(-c3ccc(F)cc3)no2)CC1 [4-[3-(4-Fluoro-phenyl)-[1,2,4]oxadiazol-5-yl]-piperidine-1-carboxylic acid (3-trifluoromethyl-phenyl)-amide]
22 | 5.07 | O=C(Nc1ccc(Cl)cc1)N1CCC(c2nc(-c3ccc(F)cc3)no2)CC1 [4-[3-(4-Fluoro-phenyl)-[1,2,4]oxadiazol-5-yl]-piperidine-1-carboxylic acid (4-chloro-phenyl)-amide]
23 | 1.96 | Fc1ccc2[nH]c3c(N4CCN(Cc5ccc6c(c5)OCO6)CC4)ncnc3c2c1 [4-[4-(1,3-benzodioxol-5-ylmethyl)-1-piperazinyl]-8-fluoro-5H-pyrimido[5,4-b]indole]
24 | 3.73 | COc1cccc(N2CCN(c3ncnc4c3[nH]c3ccccc34)CC2C)c1 (stereo not given) [4-[4-(3-methoxyphenyl)-3-methyl-1-piperazinyl]-5H-pyrimido[5,4-b]indole]
25 | 9.07 | Oc1ccc(N2CCN(c3ncnc4sc5c(c34)CCC5)CC2)cc1 [4-[4-(7,8-dihydro-6H-cyclopenta[4,5]thieno[1,2-c]pyrimidin-1-yl)-1-piperazinyl]phenol]
26 | 0.106 | Clc1ccc(OCCN2CCN(c3ncnc4sccc34)CC2)cc1 [4-[4-[2-(4-chloranylphenoxy)ethyl]piperazin-1-yl]thieno[2,3-d]pyrimidine]
27 | 9.19 | CCOc1ccc(Cc2nc(-c3nonc3N)no2)cc1OCC [4-[5-(3,4-diethoxybenzyl)-1,2,4-oxadiazol-3-yl]-1,2,5-oxadiazol-3-amine]
28 | 0.207 | CCOc1ccc(-c2nc(-c3ccncc3)no2)cc1OCC [4-[5-(3,4-diethoxyphenyl)-1,2,4-oxadiazol-3-yl]pyridine]
29 | 1.61 | Cc1ccc(C(C)C)c(OCc2nc(-c3nonc3N)no2)c1 [4-[5-[(5-methyl-2-propan-2-yl-phenoxy)methyl]-1,2,4-oxadiazol-3-yl]-1,2,5-oxadiazol-3-amine]
30 | 9.24 | c1ccc(N2CCN(Cc3ccnc4ccccc34)CC2)cc1 [4-[(4-phenyl-1-piperazinyl)methyl]quinoline]
31 | 9.78 | CCN(CC)c1ccc2cc(NC(=O)CCC(=O)O)c(=O)oc2c1 [4-[[7-(diethylamino)-2-keto-chromen-3-yl]amino]-4-keto-butyric acid]
32 | > 10 | CN(CC1CCCO1)S(=O)(=O)c1ccc(C(=O)Nc2nc(-c3ccccn3)cs2)cc1 (stereo not given) [4-[methyl(2-oxolanylmethyl)sulfamoyl]-N-[4-(2-pyridinyl)-2-thiazolyl]benzamide]
33 | 2.04 | CC(=O)c1c(C)[nH]c(C(=O)OCCCCN2C(=O)c3ccccc3C2=O)c1C [4-acetyl-3,5-dimethyl-1H-pyrrole-2-carboxylic acid 4-(1,3-dioxo-2-isoindolyl)butyl ester]
34 | 7.58 | Cc1ccc2nc(C(F)(F)F)c(C#N)c(N)c2c1 [4-amino-6-methyl-2-(trifluoromethyl)-3-quinolinecarbonitrile]
35 | 8.07 | Nc1nonc1C(=O)NCCNCc1cc(Br)ccc1OCc1ccccc1F [4-amino-N-[2-[[5-bromo-2-(2-fluorobenzyl)oxy-benzyl]amino]ethyl]furazan-3-carboxamide;hydrochloride]
36 | 6.9 | Nc1nonc1C(=O)NCCNCc1cc(Br)ccc1OCc1ccc(F)cc1 [4-amino-N-[2-[[5-bromo-2-(4-fluorobenzyl)oxy-benzyl]amino]ethyl]furazan-3-carboxamide;hydrochloride]

Row | SMILES | EC50 [µM]
37 | NC(=O)c1ccc(OCC(F)(F)C(F)(F)C(F)(F)C(F)(F)C(F)(F)C(F)F)cc1 [4-(2,2,3,3,4,4,5,5,6,6,7,7-dodecafluoroheptoxy)benzamide] | 8
38 | CCOc1cc(C2NCc3ccccc3-n3cccc32)ccc1O (stereo not given) [4-(5,6-dihydro-4H-pyrrolo[1,2-a][1,4]benzodiazepin-4-yl)-2-ethoxy-phenol;hydrochloride] | 16.1
39 | CCCCOc1ncnc2c1[nH]c1ccc(F)cc12 [4-butoxy-8-fluoranyl-5H-pyrimido[5,4-b]indole] | 2.73
40 | CCCCOc1ccc(S(=O)(=O)Nc2cccnc2)cc1 [4-butoxy-N-(3-pyridinyl)benzenesulfonamide] | 9.47

Same assay, conditions: inactive by the depositor's call

Row | EC50 [µM] | SMILES
41 | 18.6 | Cc1cc(C(=O)COC(=O)c2csc3c2CCCC3)c(C)n1C [4,5,6,7-tetrahydro-1-benzothiophene-3-carboxylic acid [2-oxo-2-(1,2,5-trimethyl-3-pyrrolyl)ethyl] ester]
42 | 13.4 | O=C(OC1CCCCC1)c1ccc(NC(=O)c2ccco2)cc1 [4-(2-furoylamino)benzoic acid cyclohexyl ester]
43 | 16.9 | Oc1nnc(Sc2ncnc3sccc23)n1CCc1ccccc1 [4-(2-phenylethyl)-3-(4-thieno[2,3-d]pyrimidinylthio)-1H-1,2,4-triazol-5-one]
44 | 12 | Cc1ccc(Cl)cc1N1CCN(C(=O)COc2ccc(S(=O)(=O)NC(C)C)cc2)CC1 [4-[2-[4-(5-chloranyl-2-methyl-phenyl)piperazin-1-yl]-2-oxidanylidene-ethoxy]-N-propan-2-yl-benzenesulfonamide]
45 | 13.3 | CCOC(=O)c1ccc(NC(=O)CCc2nc(-c3ccc(Cl)cc3)no2)cc1 [4-[3-[3-(4-chlorophenyl)-1,2,4-oxadiazol-5-yl]propanoylamino]benzoic acid ethyl ester]
46 | 13.3 | Cn1nc(CC(=O)Nc2ccc(N3CCN(C(=O)OC(C)(C)C)CC3)cc2)c2ccccc2c1=O [4-[4-[[2-(3-methyl-4-oxo-1-phthalazinyl)-1-oxoethyl]amino]phenyl]-1-piperazinecarboxylic acid tert-butyl ester]
47 | 18.4 | CCOC(=O)N1CCC(NC(=O)C2CCCN(Cc3nc(-c4cccc(Cl)c4)oc3C)C2)CC1 (stereo not given) [4-[[1-[[2-(3-chlorophenyl)-5-methyl-oxazol-4-yl]methyl]nipecotoyl]amino]piperidine-1-carboxylic acid ethyl ester]
48 | 95 | COC(=O)c1ccc(C(c2c(N)n(CC(C)C)c(=O)[nH]c2=O)N2CCN(c3ccccc3)CC2)cc1 (stereo not given) [4-[[6-amino-1-(2-methylpropyl)-2,4-dioxo-5-pyrimidinyl]-(4-phenyl-1-piperazinyl)methyl]benzoic acid methyl ester]
49 | 88 | Cc1ccc(S(=O)(=O)n2nc(C)c(Br)c2C)c(C)c1C [4-bromanyl-3,5-dimethyl-1-(2,3,4-trimethylphenyl)sulfonyl-pyrazole]

Row | SMILES | EC50 [µM]
50 | CCCCOc1ccc(S(=O)(=O)Nc2cc(OC)ccc2OC)cc1 [4-butoxy-N-(2,5-dimethoxyphenyl)benzenesulfonamide] | 12.9
